From BindingDB's records for patent WO2025051920 (Sanofi-Aventis Deutschland, 2025)
Bridge positions count the residues as written; N and C are the ends. Square brackets hold non-standard residues; d marks the D form. Peptide text beside a SMILES is read from it. ξ: configuration not given here. Trp(1-Me) = Cn1cc(C[C@H](N)C(=O)O)c2ccccc21; 2Nal = N[C@@H](Cc1ccc2ccccc2c1)C(=O)O; ξOrn = NCCCC(N)C(=O)O; Aib = CC(C)(N)C(=O)O

Target: Interleukin-23 subunit alpha/receptor (UniProt Q5VWK5)
Assay: ELISA assay for specific human IL-23R inhibitors
Protocol: (§1) A 384-well plate was coated with 50 µl/well of human IL-23 at a final concentration of […] and incubated overnight at 4°C. The wells were washed 3 times with […] wash buffer and blocked with […] blocking buffer for 60 minutes at room temperature and washed again. 20 µl of serially diluted test peptides was added to each well and subsequently 20 µl of recombinant human IL-23R-Fc chimera at final concentration of […]. The plate was incubated for 60 minutes at room temperature. After the wells were washed, bound IL-23R-Fc was detected with goat anti-hu- IgG 1 -HRP antibody. Signals were visualized with QuantaBlu Fluorogenic Peroxidase Substrate.

| SMILES | IC50 [nM] |
| --- | --- |
| COc1ccc(C[C@@H]2NC(=O)[C@H](C)NC(=O)[C@H](CCC(N)=O)NC(=O)[C@H](Cc3c[nH]c4ccccc34)NC(=O)[C@H]([C@@H](C)O)NC(=O)[C@H](CC(N)=O)NC(=O)[C@H](NC(C)=O)CCCCNC(=O)C[C@@H](C(=O)N[C@@H](CC(N)=O)C(=O)N[C@@H](CC(N)=O)C(=O)O)NC(=O)C(C)(C)NC(=O)[C@H](Cc3ccc4ccccc4c3)NC2=O)cc1 [WO2025051920, Example 2] | 0.69 |
| COc1ccc(C[C@@H]2NC(=O)[C@H](CC(C)C)NC(=O)[C@H](CCC(N)=O)NC(=O)[C@H](Cc3c[nH]c4ccccc34)NC(=O)[C@H]([C@@H](C)O)NC(=O)[C@H](CC(N)=O)NC(=O)[C@H](NC(C)=O)CCCCNC(=O)C[C@@H](C(=O)N[C@@H](CC(N)=O)C(=O)N[C@@H](CC(N)=O)C(=O)O)NC(=O)C(C)(C)NC(=O)[C@H](Cc3ccc4ccccc4c3)NC2=O)cc1 [WO2025051920, Example 1] | 0.63 |
| COc1ccc(C[C@@H]2NC(=O)[C@H](C)NC(=O)[C@H](CCC(N)=O)NC(=O)[C@H](Cc3c[nH]c4ccccc34)NC(=O)C([C@@H](C)O)NC(=O)[C@H](CC(N)=O)NC(=O)C(N)CCCCCNC(=O)C[C@H](C(=O)N[C@@H](CC(N)=O)C(=O)N[C@@H](CC(N)=O)C(=O)O)NC(=O)C(C)(C)NC(=O)[C@H](Cc3ccc4ccccc4c3)NC2=O)cc1 (stereo partly drawn) [WO2025051920, Example 43] | 1.44 |
| COc1ccc(C[C@@H]2NC(=O)[C@H](C)NC(=O)[C@H](CCC(N)=O)NC(=O)[C@H](Cc3c[nH]c4ccccc34)NC(=O)[C@H]([C@@H](C)O)NC(=O)[C@H](CC(N)=O)NC(=O)[C@H](NC(C)=O)CCCCNC(=O)C[C@@H](C(=O)N[C@@H](C)C(=O)N[C@@H](CC(N)=O)C(=O)O)NC(=O)C(C)(C)NC(=O)[C@H](Cc3ccc4ccccc4c3)NC2=O)cc1 [WO2025051920, Example 49] | 3.13 |
| COc1ccc(C[C@@H]2NC(=O)[C@H](CCNC(=N)N)NC(=O)[C@H](CCC(N)=O)NC(=O)[C@H](Cc3c[nH]c4ccccc34)NC(=O)[C@H]([C@@H](C)O)NC(=O)[C@H](CC(N)=O)NC(=O)[C@H](NC(C)=O)CCCCNC(=O)C[C@@H](C(=O)N[C@@H](CC(N)=O)C(=O)N[C@@H](CC(N)=O)C(=O)O)NC(=O)C(C)(C)NC(=O)[C@H](Cc3ccc4ccccc4c3)NC2=O)cc1 [WO2025051920, Example 39] | 1.46 |
| COc1ccc(C[C@@H]2NC(=O)[C@H](CCCNC(=N)N)NC(=O)[C@H](CCC(N)=O)NC(=O)[C@H](Cc3c[nH]c4ccccc34)NC(=O)[C@H]([C@@H](C)O)NC(=O)[C@H](CC(N)=O)NC(=O)[C@H](NC(C)=O)CCCCNC(=O)C[C@@H](C(=O)N[C@@H](CC(N)=O)C(=O)N[C@@H](CC(N)=O)C(=O)O)NC(=O)[C@H](CCCNC(N)=O)NC(=O)[C@H](Cc3ccc4ccccc4c3)NC2=O)cc1 [WO2025051920, Example 29] | 5.63 |
| COc1ccc(C[C@@H]2NC(=O)[C@H](CCCNC(=N)N)NC(=O)[C@H](CCC(N)=O)NC(=O)[C@H](Cc3cn(C)c4ccccc34)NC(=O)[C@H]([C@@H](C)O)NC(=O)[C@H](CC(N)=O)NC(=O)[C@@H](NC(C)=O)CC(=O)NCCCC(C(=O)N[C@@H](CC(N)=O)C(=O)N[C@@H](CC(N)=O)C(=O)O)NC(=O)C(C)(C)NC(=O)[C@H](Cc3c[nH]c4ccccc34)NC2=O)cc1 (stereo partly drawn) [WO2025051920, Example 36] (Ac-DNT[Trp(1-Me)]QRY(Me)W[Aib][ξOrn]NN-OH; lactam 1-10) | 19.5 |
| COc1ccc(C[C@@H]2NC(=O)[C@H](CC(C)C)NC(=O)[C@H](CCC(N)=O)NC(=O)[C@H](Cc3c[nH]c4ccccc34)NC(=O)[C@H]([C@@H](C)O)NC(=O)[C@H](CC(N)=O)NC(=O)[C@H](NC(C)=O)CCCCNC(=O)C[C@@H](C(=O)N[C@@H](CC(N)=O)C(=O)N[C@@H](CC(N)=O)C(=O)O)NC(=O)C(C)(C)NC(=O)[C@H](Cc3cccc4ccccc34)NC2=O)cc1 [WO2025051920, Example 7] | 2.47 |
| COc1ccc(C[C@@H]2NC(=O)[C@H](C(C)C)NC(=O)[C@H](CCC(N)=O)NC(=O)[C@H](Cc3c[nH]c4ccccc34)NC(=O)[C@H]([C@@H](C)O)NC(=O)[C@H](CC(N)=O)NC(=O)[C@H](NC(C)=O)CCCCNC(=O)C[C@@H](C(=O)N[C@@H](CC(N)=O)C(=O)N[C@@H](CC(N)=O)C(=O)O)NC(=O)C(C)(C)NC(=O)[C@H](Cc3ccc4ccccc4c3)NC2=O)cc1 [WO2025051920, Example 31] | 8.27 |
| COc1ccc(C[C@@H]2NC(=O)[C@H](C)NC(=O)[C@H](CCC(N)=O)NC(=O)[C@H](Cc3c[nH]c4ccccc34)NC(=O)[C@H]([C@@H](C)O)NC(=O)[C@H](CC(N)=O)NC(=O)[C@H](NC(C)=O)CCCCNC(=O)C[C@@H](C(=O)N[C@@H](C)C(=O)N[C@@H](C)C(=O)O)NC(=O)C(C)(C)NC(=O)[C@H](Cc3ccc4ccccc4c3)NC2=O)cc1 [WO2025051920, Example 50] | 8.29 |
| COc1ccc(C[C@@H]2NC(=O)[C@H](C(C)C)NC(=O)[C@H](CCC(N)=O)NC(=O)[C@H](Cc3c[nH]c4ccccc34)NC(=O)[C@H]([C@@H](C)O)NC(=O)[C@H](CC(N)=O)NC(=O)[C@H](NC(C)=O)CCCCNC(=O)C[C@@H](C(=O)N[C@@H](CC(N)=O)C(=O)N[C@@H](CC(N)=O)C(=O)O)NC(=O)C(C)(C)NC(=O)[C@H](Cc3cccc4ccccc34)NC2=O)cc1 [WO2025051920, Example 20] | 15.9 |
| COc1ccc(C[C@@H]2NC(=O)[C@H](CCCNC(=N)N)NC(=O)[C@H](CCC(N)=O)NC(=O)[C@H](Cc3cn(C)c4ccccc34)NC(=O)[C@H]([C@@H](C)O)NC(=O)[C@H](CC(N)=O)NC(=O)[C@@H](NC(C)=O)CC(=O)NCCCC(C(=O)N[C@@H](CC(N)=O)C(=O)N[C@@H](CC(N)=O)C(=O)O)NC(=O)C(C)(C)NC(=O)[C@H](Cc3ccc4ccccc4c3)NC2=O)cc1 (stereo partly drawn) [WO2025051920, Example 34] (Ac-DNT[Trp(1-Me)]QRY(Me)[2Nal][Aib][ξOrn]NN-OH; lactam 1-10) | 2.16 |
| COc1ccc(C[C@@H]2NC(=O)[C@H](CCCNC(=N)N)NC(=O)[C@H](CCC(N)=O)NC(=O)[C@H](Cc3cn(C)c4ccccc34)NC(=O)[C@H]([C@@H](C)O)NC(=O)[C@H](CC(N)=O)NC(=O)[C@H](NC(C)=O)CCCCNC(=O)C[C@@H](C(=O)N[C@@H](CC(N)=O)C(=O)N[C@@H](CC(N)=O)C(=O)O)NC(=O)[C@H](CCCCNC(C)=O)NC(=O)[C@H](Cc3ccc4ccccc4c3)NC2=O)cc1 [WO2025051920, Example 10] | 3.6 |

Target: T1, Interleukin-23 subunit alpha/receptor (UniProt Q9NPF7+Q5VWK5)
T1 sequence (Q9NPF7 whole entry): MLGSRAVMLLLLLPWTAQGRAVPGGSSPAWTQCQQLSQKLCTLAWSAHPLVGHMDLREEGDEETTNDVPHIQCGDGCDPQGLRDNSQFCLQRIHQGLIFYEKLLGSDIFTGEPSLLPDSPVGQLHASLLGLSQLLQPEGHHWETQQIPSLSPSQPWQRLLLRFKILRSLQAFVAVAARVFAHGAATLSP
T1 sequence (Q5VWK5 whole entry): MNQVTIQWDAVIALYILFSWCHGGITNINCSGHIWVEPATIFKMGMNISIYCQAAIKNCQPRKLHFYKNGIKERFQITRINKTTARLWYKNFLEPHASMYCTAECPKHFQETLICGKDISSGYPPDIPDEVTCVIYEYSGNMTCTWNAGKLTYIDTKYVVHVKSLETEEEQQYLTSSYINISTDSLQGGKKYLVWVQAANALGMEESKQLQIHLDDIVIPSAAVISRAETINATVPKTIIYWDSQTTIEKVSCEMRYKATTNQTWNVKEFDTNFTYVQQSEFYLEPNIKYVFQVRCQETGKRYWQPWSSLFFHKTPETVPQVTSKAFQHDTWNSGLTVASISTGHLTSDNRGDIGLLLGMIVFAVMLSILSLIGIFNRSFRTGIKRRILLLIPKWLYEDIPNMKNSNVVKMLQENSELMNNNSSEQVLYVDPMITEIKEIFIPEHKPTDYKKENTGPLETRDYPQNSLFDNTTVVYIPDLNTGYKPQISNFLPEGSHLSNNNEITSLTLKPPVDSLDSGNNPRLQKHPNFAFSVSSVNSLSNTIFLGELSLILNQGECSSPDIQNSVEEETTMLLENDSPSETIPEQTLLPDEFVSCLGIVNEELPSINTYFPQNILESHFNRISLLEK
Assay: ELISA assay for specific human IL-23R inhibitors
Protocol: as §1

| SMILES | IC50 [nM] |
| --- | --- |
| COc1ccc(C[C@@H]2NC(=O)[C@H](CCCNC(=N)N)NC(=O)[C@H](CCC(N)=O)NC(=O)[C@H](Cc3cn(C)c4ccccc34)NC(=O)[C@H]([C@@H](C)O)NC(=O)[C@H](CC(N)=O)NC(=O)[C@H](NC(C)=O)CCCCNC(=O)C[C@@H](C(=O)N[C@@H](CC(N)=O)C(=O)N[C@@H](CC(N)=O)C(=O)O)NC(=O)[C@H](CC(C)C)NC(=O)[C@H](Cc3cccc4ccccc34)NC2=O)cc1 [WO2025051920, Example 23] | 12 |
| COc1ccc(C[C@@H]2NC(=O)[C@H](CCCNC(=N)N)NC(=O)[C@H](CCC(N)=O)NC(=O)[C@H](Cc3c[nH]c4ccccc34)NC(=O)C([C@@H](C)O)NC(=O)[C@H](CC(N)=O)NC(=O)C(NC(C)=O)CCCCNC(=O)C[C@H](C(=O)N[C@@H](CC(N)=O)C(=O)N[C@@H](CC(N)=O)C(=O)O)NC(=O)C(C)(C)NC(=O)[C@H](Cc3ccc4ccccc4c3)NC2=O)cc1 (stereo partly drawn) [WO2025051920, Example 15] | 1.04 |
| COc1ccc(C[C@@H]2NC(=O)[C@H](CCCNC(=N)N)NC(=O)[C@H](CCC(N)=O)NC(=O)[C@H](Cc3c[nH]c4ccccc34)NC(=O)C([C@@H](C)O)NC(=O)[C@H](CC(N)=O)NC(=O)C(NC(C)=O)CCCCNC(=O)C[C@H](C(=O)N[C@@H](CC(N)=O)C(=O)N[C@@H](CC(N)=O)C(=O)O)NC(=O)C(C)(C)NC(=O)[C@H](Cc3cccc4ccccc34)NC2=O)cc1 (stereo partly drawn) [WO2025051920, Example 9] | 3.55 |
| COc1ccc(C[C@@H]2NC(=O)[C@H](CCCNC(=N)N)NC(=O)[C@H](CCC(N)=O)NC(=O)[C@H](Cc3c[nH]c4ccccc34)NC(=O)C([C@@H](C)O)NC(=O)[C@H](CC(N)=O)NC(=O)[C@H](NC(C)=O)CCCCNC(=O)CC[C@H](C(=O)N[C@@H](CC(N)=O)C(=O)N[C@@H](CC(N)=O)C(=O)O)NC(=O)C(C)(C)NC(=O)[C@H](Cc3ccc4ccccc4c3)NC2=O)cc1 (stereo partly drawn) [WO2025051920, Example 5] | 1.95 |
| COc1ccc(C[C@@H]2NC(=O)[C@H](C)NC(=O)[C@H](CCC(N)=O)NC(=O)[C@H](Cc3c[nH]c4ccccc34)NC(=O)C([C@@H](C)O)NC(=O)[C@H](CC(N)=O)NC(=O)C(N)CCCCNC(=O)C[C@H](C(=O)N[C@@H](CC(N)=O)C(=O)N[C@@H](CC(N)=O)C(=O)O)NC(=O)C(C)(C)NC(=O)[C@H](Cc3ccc4ccccc4c3)NC2=O)cc1 (stereo partly drawn) [WO2025051920, Example 44] | 4.66 |
